“Also recorded” adds a separate entry of the source.
Experiments:
[1] = Serum half-life and bioavailability of 14C-labeled DIME; type: in vivo; conditions: mice
Description: Mice were orally dosed with 126 mg/kg 14C-labeled DIME (Compound 1). After dosing, blood sampling times were 15 and 30 minutes and 1, 2, 4, 6, 8 and 24 hours. Aliquots (50 μL) of blood were assayed in a liquid scintillation counter and data expressed as microgram-equivalents per mL. The blood level data were analyzed by the […] method (Micromath, Salt Lake City, Utah). Parallel groups of mice were dosed intravenously with 24.5 mg/kg 14C-labeled DIME and blood sampling times were 10, 20 and 30 minutes and 1, 2, 4, 6 and 8 hours.

[2] = test system: MDA-MB-231 human mammary cancer cells; assay: Cell growth kinetics, median effect and isobologram; type: cell-based; conditions: 0.75 μM DIME (or DIPE) or 1-2 nM vincristine alone
Description: (§1) c. MDA-MB-231 human mammary cancer cells were cultured and treated as reported previously by Mendeleyev et al., International Journal of Oncology 10:689-695 (1997) and Zhen et al., International Journal of Oncology 10:689-695 (1997). For the assay of cell growth kinetics cells, were seeded into 2cm^2 wells (24-well plates) at a density of 8×10^3 /cm^2 at the time of seeding. Vincristine (or vinblastine) and DIME (or DIPE) were added from DMSO dilutions (1-2 μl/ 500 μl culture mediim) either from separate drug solutions or for the construction of median effect plot (FIG. 1) from a pre-made mixture of both drugs (e.g. 0.75 μM DIME+2 nM vincristine) and simultaneous dilutions thereof (Chou et al. Eur. J. Biochem. 115: 207-216 (1981)). The cultures were incubated at 37° C. for 4 days and growth rates, leading to near confluency in drug-free controls, were monitored by cell counting in a haemocytometer after detachment by trypsin treatment Mendeleyev et al., International Journal of Oncology 10:689-695 (1997) and Zhen et al., International Journal of Oncology 10:689-695 (1997). Mathematical analysis of growth curves and median effects and isobolograms were carried out by published procedures (Chou et al. J. Theor. Biol. 65: 345-356 (1977), Chou et al. Eur. J. Biochem. 115: 207-216 (1981) and Chou et al. Adv. in Enzyme Regulation 22:27-55 (1984)) and error bars indicate SD=Σx^2 +L -(Σx)^2 /n where X is the numerical results with n=3-5.
Kinetics of vincristine-DIME interactions: Interpretation of conventional isobolograms, consisting of plots of I50 values of two drugs alone and in combination is valid only if it is proven kinetically that both drugs bind at mutually exclusive sites.
Isobologram analysis of the combined action of DIME and vincristine is illustrated in FIG. 2, and it is evident that the action of the two drugs in combination exceed an additive effect, which is depicted by a concave curve, contrasting with additive action, which would display a straight line connecting the I50 values for each drug alone (dotted line in FIG. 2). […]

[3] = test system: metaphase arrest in cancer cells; assay: Metaphase block (mitotic block); type: cell-based
Excerpt: Metaphase was quantitated as reported by Mendeleyev et al., International Journal of Oncology 10:689-695 (1997).
Since vincristine and vinblastine were equivalent here we illustrate only DIME-vinblastine interaction on mitotic block.

[4] = test system: DIME-tolerant clones DR6 and DR7; assay: Colony formation of DIME-tolerant clones; type: cell-based, human; conditions: concentrations that reduce colony formation by 10^3 in parent line
Excerpt: e. Colony formation was quantitated as reported by. Each colony of 50 cells is the outgrowth from one cell, plated 10 days before colony counting.

[5] = test system: DIME-tolerant cells (DR6, DR7); assay: Cell growth of DIME-tolerant cells; type: cell-based, human
Description: as §1, with “Mathematical analysis of growth curves and median effects and isobolograms were carried out by published procedures (Chou et al. J. Theor. Biol. 65: 345-356 (1977), Chou et al. Eur. J. Biochem. 115: 207-216 (1981) and Chou et al. Adv. in Enzyme Regulation 22:27-55 (1984)) and error bars indicate SD=Σx^2 +L -(Σx)^2 /n where X is the numerical results with n=3-5.” left out

caspase 3 = assay: Caspase 3 in cell-free extracts treated with drugs; type: biochemical; conditions: results not shown
cells (DNA breaks) = assay: DNA breaks in cells incubated with DIME; type: cell-based
malignant tumor growth = assay: Activity of DIME in vivo (general statement)
microtubules = assay: Microtubule binding
thyroid = conditions: rats; as compared to thyroxine; cited from earlier work

With `COC(=O)c1cc(I)c(Oc2ccc(OC)cc2)c(I)c1` [DIME, methyl 3,5-diiodo-4-(4'-methoxyphenoxy) benzoate] the “half-life (t1/2) in serum” value [1] was 2 to 2.5 h, the “Growth rate with single drug” value [2] was “do not elicit effects that exceed the SD of average cell growth rates; also recorded: fall within SD values” and the M-block [3] was “induces M-block”. For the same compound, the “Inhibition of colony formation of DR6 and DR7 clones” value [4] was “only marginal inhibition of colony formation”, the “Doubling time of DIME-tolerant cells after removal of DIME” value ([5]; DIME removed) was 40 to 45 h and the “Doubling time of DIME-tolerant cells” value ([5]; in the presence of 1.5 μM DIME, cancer cells 20 hrs) was 70 to 78 h. The “Caspase 3 increase in cell-free extracts” value (caspase 3) was “do not show an increase in caspase 3”, the DNA breaks (cells (DNA breaks)) was “induces DNA breaks” and the Activity in vivo (malignant tumor growth) was “highly active”. The Binding to microtubules (microtubules) was “bind to microtubules” and the “Inhibition of uptake of iodine into the thyroid” value (thyroid) was 15%.

From patent US6303621A, “Method for treating cancers using a diiodo thyronine analogue having no significant hormonal activity and a vinca alkaloid and compositions comprising the same” (priority 1999, dated 2001)
